From ChEMBL document CHEMBL5120857, “Rational design, synthesis and biological evaluation of dual PARP-1/2 and TNKS1/2 inhibitors for cancer therapy” (Eur J Med Chem, 2022)
Calls of active or inactive are those of the source. No cut-off for these calls is given here.

What was measured:
[1] = molecular target: Protein mono-ADP-ribosyltransferase PARP14 (Homo sapiens, UniProt Q460N5); assay: Inhibition of PARP-14 (unknown origin)
[2] = Clearance in Sprague-Dawley rat at 10 mg/kg, po or 1 mg/kg, iv; format: ADME, organism-based; settings: in vivo
HCT-116 [3] = assay: Inhibition of PARP in human HCT-116 cells assessed as decrease in pADPr levels at 10 uM by Western blot analysis; format: cell-based
HCT-116 [4] = assay: Downregulation of BRCA1 protein expression in human HCT-116 cells at 1 uM by Western blot analysis; format: functional, cell-based
[5] = Toxicity in […] assessed as effect on body weight at 500 mg/kg, ip administered as single dose and measured on day 2 (reference value: 23.25 +/- 2.22 g); format: organism-based; settings: in vivo
[6] = molecular target: T1, Poly [ADP-ribose] polymerase tankyrase-2 (Homo sapiens) (UniProt Q9H2K2); settings: dose 10.0 nM, time 1.0 hrs
T1 sequence (whole entry): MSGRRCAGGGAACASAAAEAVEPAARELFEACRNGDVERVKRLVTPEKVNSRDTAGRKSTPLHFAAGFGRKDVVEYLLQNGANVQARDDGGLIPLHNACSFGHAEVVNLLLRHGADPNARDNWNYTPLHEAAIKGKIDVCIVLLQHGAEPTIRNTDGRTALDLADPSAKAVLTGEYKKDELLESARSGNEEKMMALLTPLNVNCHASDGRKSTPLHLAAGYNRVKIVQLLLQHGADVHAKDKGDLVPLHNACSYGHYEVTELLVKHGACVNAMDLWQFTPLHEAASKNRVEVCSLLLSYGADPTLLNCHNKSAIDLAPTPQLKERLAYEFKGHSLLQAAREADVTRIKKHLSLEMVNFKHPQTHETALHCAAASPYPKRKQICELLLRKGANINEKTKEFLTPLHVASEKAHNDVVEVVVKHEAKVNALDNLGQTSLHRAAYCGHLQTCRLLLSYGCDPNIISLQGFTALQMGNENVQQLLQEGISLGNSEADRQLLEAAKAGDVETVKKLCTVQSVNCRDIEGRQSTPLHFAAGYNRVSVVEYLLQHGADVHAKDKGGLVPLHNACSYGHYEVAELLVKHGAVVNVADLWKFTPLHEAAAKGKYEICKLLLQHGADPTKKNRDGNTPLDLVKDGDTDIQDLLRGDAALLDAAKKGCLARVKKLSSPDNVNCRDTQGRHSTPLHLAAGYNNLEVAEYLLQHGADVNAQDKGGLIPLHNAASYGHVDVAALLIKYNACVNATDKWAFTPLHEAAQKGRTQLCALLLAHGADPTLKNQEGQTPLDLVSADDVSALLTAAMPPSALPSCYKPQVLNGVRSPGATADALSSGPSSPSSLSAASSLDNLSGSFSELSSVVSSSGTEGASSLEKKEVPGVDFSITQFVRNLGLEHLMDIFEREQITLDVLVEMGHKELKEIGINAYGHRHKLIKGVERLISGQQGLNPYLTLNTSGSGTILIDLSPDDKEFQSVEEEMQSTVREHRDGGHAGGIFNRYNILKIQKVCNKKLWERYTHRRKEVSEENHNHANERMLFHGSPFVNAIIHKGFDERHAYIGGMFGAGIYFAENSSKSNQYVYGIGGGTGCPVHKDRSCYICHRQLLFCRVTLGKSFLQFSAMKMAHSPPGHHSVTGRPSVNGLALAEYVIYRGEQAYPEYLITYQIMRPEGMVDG

HCT-116 [7] = assay: Induction of cell cycle arrest in human HCT-116 cells assessed as G2/M phase cells at 5 uM incubated for 3 days by propidium iodide staining based flow cytometry (reference value: 68.35 %); format: functional; settings: time 3 day
[8] = Half-life in Sprague-Dawley rat at 10 mg/kg, po or 1 mg/kg, iv; format: ADME, organism-based; settings: in vivo
[9] = molecular target: Poly [ADP-ribose] polymerase 2 (Homo sapiens, UniProt Q9UGN5); assay: Inhibition of PAPR-2 (unknown origin)
[10] = molecular target: T2, Protein mono-ADP-ribosyltransferase TIPARP (Homo sapiens, UniProt Q7Z3E1); assay: Inhibition of PARP-7 (unknown origin)
T2 sequence (Q7Z3E1 whole entry): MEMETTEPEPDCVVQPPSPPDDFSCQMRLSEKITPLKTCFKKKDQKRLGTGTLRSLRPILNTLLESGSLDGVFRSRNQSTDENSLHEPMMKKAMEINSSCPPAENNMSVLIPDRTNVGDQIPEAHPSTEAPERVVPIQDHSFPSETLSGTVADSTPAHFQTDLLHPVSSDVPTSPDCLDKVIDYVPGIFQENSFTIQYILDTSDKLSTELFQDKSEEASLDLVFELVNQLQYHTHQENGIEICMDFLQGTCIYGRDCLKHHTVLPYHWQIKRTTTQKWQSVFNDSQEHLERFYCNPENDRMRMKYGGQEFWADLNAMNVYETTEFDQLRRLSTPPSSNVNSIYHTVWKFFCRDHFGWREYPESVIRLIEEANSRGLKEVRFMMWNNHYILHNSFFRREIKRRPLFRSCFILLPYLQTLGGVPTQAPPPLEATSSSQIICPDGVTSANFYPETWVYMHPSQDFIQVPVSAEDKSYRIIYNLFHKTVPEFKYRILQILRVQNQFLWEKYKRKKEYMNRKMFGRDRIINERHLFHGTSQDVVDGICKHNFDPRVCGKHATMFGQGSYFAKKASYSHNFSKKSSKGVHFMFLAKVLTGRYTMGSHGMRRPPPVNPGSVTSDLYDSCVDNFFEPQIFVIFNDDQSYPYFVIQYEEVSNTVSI

[11] = Toxicity in […] assessed as morphological changes in duodenum at 500 mg/kg, ip by H&E staining based histopathological analysis; format: organism-based; settings: in vivo
HCT-116 [12] = assay: Induction of apoptosis in human HCT-116 cells assessed as early apoptotic cells at 1 uM incubated for 3 days by annexinV-FITC/propidium iodide staining based flow cytometry (reference value: 7.67 %); format: functional; settings: time 3 day

Protein mono-ADP-ribosyltransferase PARP14, sequence (Q460N5 whole entry): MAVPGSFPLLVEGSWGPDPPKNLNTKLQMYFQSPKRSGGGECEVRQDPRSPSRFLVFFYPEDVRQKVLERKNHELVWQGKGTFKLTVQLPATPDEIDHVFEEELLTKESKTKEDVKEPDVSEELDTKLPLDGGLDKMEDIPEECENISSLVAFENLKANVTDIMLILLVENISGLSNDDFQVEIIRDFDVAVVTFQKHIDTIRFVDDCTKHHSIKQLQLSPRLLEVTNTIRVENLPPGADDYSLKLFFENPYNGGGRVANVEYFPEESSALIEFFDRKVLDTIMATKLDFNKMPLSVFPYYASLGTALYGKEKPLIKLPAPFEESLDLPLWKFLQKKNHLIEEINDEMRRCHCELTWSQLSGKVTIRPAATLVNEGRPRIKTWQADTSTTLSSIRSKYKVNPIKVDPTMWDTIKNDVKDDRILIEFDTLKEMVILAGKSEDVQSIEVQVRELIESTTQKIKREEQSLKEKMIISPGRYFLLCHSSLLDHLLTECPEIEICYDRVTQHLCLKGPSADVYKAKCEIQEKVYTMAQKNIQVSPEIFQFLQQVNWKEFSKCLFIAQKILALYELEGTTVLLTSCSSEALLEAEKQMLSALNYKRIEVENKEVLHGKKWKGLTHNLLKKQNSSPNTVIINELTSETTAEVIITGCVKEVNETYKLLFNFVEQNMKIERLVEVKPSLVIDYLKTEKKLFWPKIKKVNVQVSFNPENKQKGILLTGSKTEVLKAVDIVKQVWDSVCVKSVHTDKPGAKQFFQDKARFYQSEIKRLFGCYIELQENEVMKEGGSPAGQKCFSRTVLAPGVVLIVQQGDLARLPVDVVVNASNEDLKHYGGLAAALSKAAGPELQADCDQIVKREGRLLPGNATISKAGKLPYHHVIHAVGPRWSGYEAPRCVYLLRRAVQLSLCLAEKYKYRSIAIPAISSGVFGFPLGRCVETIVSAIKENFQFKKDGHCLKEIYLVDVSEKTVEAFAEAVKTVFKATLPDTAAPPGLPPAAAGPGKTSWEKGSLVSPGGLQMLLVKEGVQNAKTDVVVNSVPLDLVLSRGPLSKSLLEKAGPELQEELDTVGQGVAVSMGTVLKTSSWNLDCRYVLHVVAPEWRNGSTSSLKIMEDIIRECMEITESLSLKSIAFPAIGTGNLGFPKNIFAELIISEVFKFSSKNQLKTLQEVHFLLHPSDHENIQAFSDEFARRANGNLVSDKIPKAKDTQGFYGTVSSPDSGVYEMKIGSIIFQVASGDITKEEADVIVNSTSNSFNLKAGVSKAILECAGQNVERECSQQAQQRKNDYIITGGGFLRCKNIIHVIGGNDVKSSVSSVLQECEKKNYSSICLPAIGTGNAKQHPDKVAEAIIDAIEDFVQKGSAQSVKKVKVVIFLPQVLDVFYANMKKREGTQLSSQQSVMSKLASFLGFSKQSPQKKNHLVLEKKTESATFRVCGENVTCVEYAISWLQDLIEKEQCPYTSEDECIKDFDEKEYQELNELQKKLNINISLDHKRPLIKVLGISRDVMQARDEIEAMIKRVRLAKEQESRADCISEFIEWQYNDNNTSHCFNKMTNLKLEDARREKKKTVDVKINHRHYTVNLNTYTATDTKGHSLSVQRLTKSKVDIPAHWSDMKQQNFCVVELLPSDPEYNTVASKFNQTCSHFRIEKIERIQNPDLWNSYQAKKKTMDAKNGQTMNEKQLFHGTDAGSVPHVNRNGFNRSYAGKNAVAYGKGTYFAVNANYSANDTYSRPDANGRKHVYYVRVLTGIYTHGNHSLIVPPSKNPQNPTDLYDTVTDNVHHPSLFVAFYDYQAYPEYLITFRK
Poly [ADP-ribose] polymerase 2, sequence (Q9UGN5 whole entry): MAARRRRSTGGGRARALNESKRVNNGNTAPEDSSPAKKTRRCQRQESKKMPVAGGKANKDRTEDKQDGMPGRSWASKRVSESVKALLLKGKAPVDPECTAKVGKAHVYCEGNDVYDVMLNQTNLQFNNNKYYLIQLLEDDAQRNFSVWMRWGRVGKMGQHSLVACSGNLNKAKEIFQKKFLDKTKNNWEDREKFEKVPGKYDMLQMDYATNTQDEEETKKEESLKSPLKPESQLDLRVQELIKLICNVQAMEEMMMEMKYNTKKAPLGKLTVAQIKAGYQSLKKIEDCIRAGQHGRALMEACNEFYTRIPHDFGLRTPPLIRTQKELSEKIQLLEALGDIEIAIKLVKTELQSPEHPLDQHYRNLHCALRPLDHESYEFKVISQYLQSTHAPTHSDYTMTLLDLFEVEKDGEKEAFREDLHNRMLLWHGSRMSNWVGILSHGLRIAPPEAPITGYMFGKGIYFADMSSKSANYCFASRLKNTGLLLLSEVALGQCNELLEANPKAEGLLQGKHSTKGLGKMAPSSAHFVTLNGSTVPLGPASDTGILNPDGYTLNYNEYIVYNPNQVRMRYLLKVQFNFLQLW

## COc1ccc(NC(=O)c2ccc(NC(=O)N3CCN(C(=O)c4cc(Cc5n[nH]c(=O)c6ccccc56)ccc4F)CC3)cc2)cc1
[1]
  IC50: 1370 nM
[2]
  CL: 90.67 mL/min/kg
HCT-116 [3]
  inhibition: Active
HCT-116 [4]
  Activity: Active
[5]
  Activity: 20.75 g
[6]
  inhibition: 68.5%
HCT-116 [7]
  Activity: 54.6%
[8]
  half-life: 1.73 h
[9]
  IC50: 1.2 nM
[10]
  IC50: 15 nM
[11]
  Activity: Non-Toxic
HCT-116 [12]
  Activity: 6.86%
